Source: patent publication US20230265151A1, “GIP/GLP1 CO-AGONIST COMPOUNDS” (priority 2020, published 2023)
Like-named read-outs stand apart in the source and are kept apart here.

How the values were obtained:
Type in all cases: cell-based
hGIPR = target: T1, hGIPR (Homo sapiens, UniProt P48546); test: Functional cAMP formation (HTRF) in HEK-293 clonal cells expressing hGIPR, 0.1% bovine casein, without or with 1.0% human serum albumin; conditions: for Emax: percent of maximal response to GIP(1-42)NH2; for EC50: cAMP, 0.1% bovine casein (no human serum albumin), geometric mean
T1 construct: expressed in transfected cells
T1 sequence (P48546 22-466): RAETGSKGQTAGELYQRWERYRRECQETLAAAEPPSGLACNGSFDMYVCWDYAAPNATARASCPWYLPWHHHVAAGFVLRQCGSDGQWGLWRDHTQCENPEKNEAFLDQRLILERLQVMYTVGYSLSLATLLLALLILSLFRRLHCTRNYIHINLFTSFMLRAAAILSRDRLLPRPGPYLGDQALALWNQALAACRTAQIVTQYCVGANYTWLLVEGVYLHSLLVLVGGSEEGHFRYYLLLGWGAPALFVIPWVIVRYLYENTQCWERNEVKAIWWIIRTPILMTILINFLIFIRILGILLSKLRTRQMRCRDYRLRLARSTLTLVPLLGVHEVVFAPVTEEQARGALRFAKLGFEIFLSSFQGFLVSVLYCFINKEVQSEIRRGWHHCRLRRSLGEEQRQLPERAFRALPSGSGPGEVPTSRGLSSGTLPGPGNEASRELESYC
Outline: (§1)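 Cells were stimulated with peptide for 30 min at 37° C, then intracellular cAMP was measured by competitive HTRF (665/620 nm ratio) and converted to nM using a cAMP standard curve. Relative EC50 and Emax came from four-parameter logistic fits of percent maximal response against peptide concentration.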

hGCGR = target: T2, hGCGR (Homo sapiens, UniProt P47871); test: Functional cAMP formation (HTRF) in HEK-293 clonal cells expressing hGCGR, 0.1% bovine casein, without or with 1.0% human serum albumin; conditions: cAMP, 37° C.
T2 construct: expressed in transfected cells
Outline: as §1

hGLP-1R = hGLP-1R (Homo sapiens, UniProt P43220); test: Functional cAMP formation (HTRF) in HEK-293 clonal cells expressing hGLP-1R, 0.1% bovine casein, without or with 1.0% human serum albumin; design: expressed in transfected cells; conditions: for Emax: percent of maximal response to GLP-1(7-36)NH2; for EC50: cAMP
Outline: as §1

[1] = HEK293, read-out: hGIPR Emax, % ± SEM, cAMP, 37° C., 0.1% bovine casein and 1.0% human serum albumin
[2] = hGIPR EC50, nM (SEM, n), 37° C.
[3] = hGCGR EC50, nM (SEM, n), 0.1% bovine casein (no human serum albumin), geometric mean
[4] = hGCGR EC50, nM (SEM, n), 0.1% bovine casein and 1.0% human serum albumin, geometric mean (SEM, n)
[5] = HEK293, read-out: hGLP-1R Emax, % ± SEM, cAMP, 37° C., 0.1% bovine casein and 1.0% human serum albumin
[6] = hGLP-1R EC50, nM (SEM, n), 37° C., 0.1% bovine casein (no human serum albumin), geometric mean

T2 sequence (P47871 26-477): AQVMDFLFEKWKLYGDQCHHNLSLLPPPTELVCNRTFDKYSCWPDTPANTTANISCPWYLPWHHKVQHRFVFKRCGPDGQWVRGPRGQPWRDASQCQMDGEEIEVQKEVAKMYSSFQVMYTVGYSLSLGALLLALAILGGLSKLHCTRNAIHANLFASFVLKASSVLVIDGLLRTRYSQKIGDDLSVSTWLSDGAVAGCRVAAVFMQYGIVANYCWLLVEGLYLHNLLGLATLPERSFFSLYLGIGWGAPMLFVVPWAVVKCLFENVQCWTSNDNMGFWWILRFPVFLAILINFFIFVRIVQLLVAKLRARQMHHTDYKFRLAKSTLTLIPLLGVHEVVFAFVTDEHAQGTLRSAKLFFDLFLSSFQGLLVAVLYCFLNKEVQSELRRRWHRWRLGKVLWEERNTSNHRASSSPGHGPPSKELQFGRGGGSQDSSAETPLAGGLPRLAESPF
Sequence of hGLP-1R (P43220 24-463): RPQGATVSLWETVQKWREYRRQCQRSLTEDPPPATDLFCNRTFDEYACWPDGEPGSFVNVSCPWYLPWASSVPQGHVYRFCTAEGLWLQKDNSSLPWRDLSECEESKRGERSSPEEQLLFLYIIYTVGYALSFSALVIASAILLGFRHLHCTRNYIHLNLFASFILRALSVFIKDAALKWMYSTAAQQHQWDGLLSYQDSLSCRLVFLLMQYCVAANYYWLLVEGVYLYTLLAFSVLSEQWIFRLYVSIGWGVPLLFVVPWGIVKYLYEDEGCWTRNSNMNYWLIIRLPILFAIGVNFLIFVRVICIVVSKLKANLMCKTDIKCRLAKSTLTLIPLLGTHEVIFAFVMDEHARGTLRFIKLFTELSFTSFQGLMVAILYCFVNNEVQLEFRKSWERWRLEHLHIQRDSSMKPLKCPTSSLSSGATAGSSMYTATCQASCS

| SMILES | Emax (hGIPR; [1]) [%] | EC50 (hGIPR; [2]) [nM] | EC50 (hGCGR; [3]) [nM] | EC50 (hGCGR; [4]) [nM] | Emax (hGLP-1R; [5]) [%] | Emax (hGLP-1R; HEK293, read-out: hGLP-1R Emax, % ± SEM, cAMP, 37° C., 0.1% bovine casein, arithmetic mean) [%] | EC50 (hGLP-1R; [6]) [nM] | EC50 (hGLP-1R; hGLP-1R EC50, nM (SEM, n), 37° C., 0.1% bovine casein and 1.0% human serum albumin, geometric mean (SEM, n)) [nM] | Emax (hGIPR; HEK293, cAMP, 37° C., 0.1% bovine casein and 1.0% human serum albumin, read-out: hGIPR Emax, % ± SEM) [%] | Emax (hGIPR; HEK293, cAMP, 37° C., 0.1% bovine casein, arithmetic mean, read-out: hGIPR Emax, % ± SEM) [%] | EC50 (hGIPR; 37° C., read-out: hGIPR EC50, nM (SEM, n)) [nM] | EC50 (hGCGR; 0.1% bovine casein (no human serum albumin), geometric mean, read-out: hGCGR EC50, nM (SEM, n)) [nM] | EC50 (hGCGR; 0.1% bovine casein and 1.0% human serum albumin, geometric mean (SEM, n), read-out: hGCGR EC50, nM (SEM, n)) [nM] | Emax (hGLP-1R; HEK293, cAMP, 37° C., 0.1% bovine casein and 1.0% human serum albumin, read-out: hGLP-1R Emax, % ± SEM) [%] | EC50 (hGLP-1R; 37° C., 0.1% bovine casein (no human serum albumin), geometric mean, read-out: hGLP-1R EC50, nM (SEM, n)) [nM] | Emax (hGIPR; HEK293, read-out: hGIPR Emax, % ± SEM, cAMP, 37° C., 0.1% bovine casein, arithmetic mean) [%] |
| --- | --- | --- | --- | --- | --- | --- | --- | --- | --- | --- | --- | --- | --- | --- | --- | --- |
| CC[C@H](C)[C@H](NC(=O)[C@H](CC(C)C)NC(=O)[C@](C)(Cc1ccc(O)cc1)NC(=O)[C@@H](CCC(=O)O)NC(=O)[C@@H](NC(=O)[C@H](Cc1ccccc1)NC(=O)[C@H](CCC(=O)O)NC(=O)C(C)(C)NC(=O)[C@H](CCC(N)=O)NC(=O)[C@H](C)NC(=O)[C@H](CCCCNC(=O)COCCOCCNC(=O)COCCOCCNC(=O)CC[C@H](NC(=O)CCCCCCCCCOc1ccc(C(=O)O)cc1)C(=O)O)NC(=O)[C@H](CCCN)NC(=O)[C@H](CC(=O)O)NC(=O)[C@H](CC(C)C)NC(=O)[C@](C)(CC(C)C)NC(=O)[C@@H](NC(=O)C(C)(C)NC(=O)[C@@H](NC(=O)[C@H](CC(=O)O)NC(=O)[C@H](CO)NC(=O)[C@@H](NC(=O)[C@](C)(Cc1ccccc1F)NC(=O)[C@@H](NC(=O)CNC(=O)[C@H](CCC(=O)O)NC(=O)C(C)(C)NC(=O)[C@@H](N)Cc1ccc(O)cc1)[C@@H](C)O)[C@@H](C)O)C(C)C)[C@@H](C)CC)[C@@H](C)CC)C(=O)N[C@@H](CCCCNC(=O)COCCOCCNC(=O)COCCOCCNC(=O)CC[C@H](NC(=O)CCCCCCCCCOc1ccc(C(=O)O)cc1)C(=O)O)C(=O)NCC(=O)NCC(=O)N1CCC[C@H]1C(=O)N[C@@H](CO)C(=O)N[C@@H](CO)C(=O)NCC(=O)N[C@@H](C)C(=O)N1CCC[C@H]1C(=O)N1CCC[C@H]1C(=O)N1CCC[C@H]1C(=O)N[C@@H](CO)C(N)=O [Example 326] | 88.7 | 0.0338 | > 9950 | > 9950 | 96.1 | 94.4 | 0.186 | – | – | – | – | – | – | – | – | – |
| CC[C@H](C)[C@H](NC(=O)[C@H](CC(C)C)NC(=O)[C@](C)(Cc1ccc(O)cc1)NC(=O)[C@@H](CCC(=O)O)NC(=O)[C@@H](NC(=O)[C@H](Cc1ccccc1)NC(=O)[C@H](CCC(=O)O)NC(=O)C(C)(C)NC(=O)[C@H](CCC(N)=O)NC(=O)[C@H](C)NC(=O)[C@H](CCCCNC(=O)COCCOCCNC(=O)COCCOCCNC(=O)CC[C@H](NC(=O)CCCCCCCCCOc1ccc(C(=O)O)cc1)C(=O)O)NC(=O)[C@H](CCCN)NC(=O)[C@H](CC(=O)O)NC(=O)[C@H](CC(C)C)NC(=O)[C@](C)(CC(C)C)NC(=O)[C@@H](NC(=O)[C@H](CO)NC(=O)[C@H](CCc1ccc(O)cc1)NC(=O)[C@H](CC(=O)O)NC(=O)[C@H](CO)NC(=O)[C@@H](NC(=O)[C@](C)(Cc1ccccc1F)NC(=O)[C@@H](NC(=O)CNC(=O)[C@H](CCC(=O)O)NC(=O)C(C)(C)NC(=O)[C@@H](N)Cc1ccc(O)cc1)[C@@H](C)O)[C@@H](C)O)[C@@H](C)CC)[C@@H](C)CC)C(=O)N[C@@H](CCCCNC(=O)COCCOCCNC(=O)COCCOCCNC(=O)CC[C@H](NC(=O)CCCCCCCCCOc1ccc(C(=O)O)cc1)C(=O)O)C(=O)NCC(=O)NCC(=O)N1CCC[C@H]1C(=O)N[C@@H](CO)C(=O)N[C@@H](CO)C(=O)NCC(=O)N[C@@H](C)C(=O)N1CCC[C@H]1C(=O)N1CCC[C@H]1C(=O)N1CCC[C@H]1C(=O)N[C@@H](CO)C(N)=O [Example 327] | 90.2 | 0.018 | > 9950 | > 9950 | – | – | 0.211 | 13.6 | – | – | – | – | – | – | – | – |
| CC[C@H](C)[C@H](NC(=O)[C@H](CCCN)NC(=O)[C@H](CC(=O)O)NC(=O)[C@H](CC(C)C)NC(=O)[C@](C)(CC(C)C)NC(=O)[C@@H](NC(=O)C(C)(C)NC(=O)[C@@H](NC(=O)[C@H](CC(=O)O)NC(=O)[C@H](CO)NC(=O)[C@@H](NC(=O)[C@](C)(Cc1ccccc1F)NC(=O)[C@@H](NC(=O)CNC(=O)[C@H](CCC(=O)O)NC(=O)C(C)(C)NC(=O)[C@@H](N)Cc1ccc(O)cc1)[C@@H](C)O)[C@@H](C)O)C(C)C)[C@@H](C)CC)C(=O)N[C@@H](C)C(=O)N[C@@H](CCC(N)=O)C(=O)NC(C)(C)C(=O)N[C@@H](CCCCNC(=O)COCCOCCNC(=O)COCCOCCNC(=O)CC[C@H](NC(=O)CCCCCCCCCCCCC(=O)O)C(=O)O)C(=O)N[C@@H](Cc1ccccc1)C(=O)N[C@H](C(=O)N[C@H](CCC(=O)O)C(=O)N[C@@](C)(Cc1ccc(O)cc1)C(=O)N[C@@H](CC(C)C)C(=O)N[C@H](C(=O)N[C@@H](CCCCNC(=O)COCCOCCNC(=O)COCCOCCNC(=O)CC[C@H](NC(=O)CCCCCCCCCCCCC(=O)O)C(=O)O)C(=O)NCC(=O)NCC(=O)N1CCC[C@H]1C(=O)N[C@@H](CO)C(=O)N[C@@H](CO)C(=O)NCC(=O)N[C@@H](C)C(=O)N1CCC[C@H]1C(=O)N1CCC[C@H]1C(=O)N1CCC[C@H]1C(=O)N[C@@H](CO)C(N)=O)[C@@H](C)CC)[C@@H](C)CC [Example 329] | – | – | – | – | – | – | – | – | 100 | 109 | 0.015 | > 9950 | > 9950 | 88.3 | 0.353 | – |
| CC[C@H](C)[C@H](NC(=O)[C@H](CCCN)NC(=O)[C@H](CC(=O)O)NC(=O)[C@H](CC(C)C)NC(=O)[C@](C)(CC(C)C)NC(=O)[C@@H](NC(=O)C(C)(C)NC(=O)[C@@H](NC(=O)[C@H](CC(=O)O)NC(=O)[C@H](CO)NC(=O)[C@@H](NC(=O)[C@](C)(Cc1ccccc1F)NC(=O)[C@@H](NC(=O)CNC(=O)[C@H](CCC(=O)O)NC(=O)C(C)(C)NC(=O)[C@@H](N)Cc1ccc(O)cc1)[C@@H](C)O)[C@@H](C)O)C(C)C)[C@@H](C)CC)C(=O)N[C@@H](C)C(=O)N[C@@H](CCC(N)=O)C(=O)NC(C)(C)C(=O)N[C@@H](CCCCNC(=O)COCCOCCNC(=O)COCCOCCNC(=O)CC[C@H](NC(=O)CCCCCCCCCOc1ccc(C(=O)O)cc1)C(=O)O)C(=O)N[C@@H](Cc1ccccc1)C(=O)N[C@H](C(=O)N[C@H](CCC(=O)O)C(=O)N[C@@](C)(Cc1ccc(O)cc1)C(=O)N[C@@H](CC(C)C)C(=O)N[C@H](C(=O)N[C@@H](CCCCNC(=O)COCCOCCNC(=O)COCCOCCNC(=O)CC[C@H](NC(=O)CCCCCCCCCOc1ccc(C(=O)O)cc1)C(=O)O)C(=O)NCC(=O)NCC(=O)N1CCC[C@H]1C(=O)N[C@@H](CO)C(=O)N[C@@H](CO)C(=O)NCC(=O)N[C@@H](C)C(=O)N1CCC[C@H]1C(=O)N1CCC[C@H]1C(=O)N1CCC[C@H]1C(=O)N[C@@H](CO)C(N)=O)[C@@H](C)CC)[C@@H](C)CC [Example 330] | – | 0.0185 | > 9950 | > 9950 | 85 | – | 0.477 | – | – | – | – | – | – | – | – | 112 |
| CC[C@H](C)[C@H](NC(=O)[C@H](CCCN)NC(=O)[C@H](CC(=O)O)NC(=O)[C@H](CC(C)C)NC(=O)[C@](C)(CC(C)C)NC(=O)[C@@H](NC(=O)C(C)(C)NC(=O)[C@H](Cc1ccncc1)NC(=O)[C@H](CC(=O)O)NC(=O)[C@H](CO)NC(=O)[C@@H](NC(=O)[C@](C)(Cc1ccccc1F)NC(=O)[C@@H](NC(=O)CNC(=O)[C@H](CCC(=O)O)NC(=O)C(C)(C)NC(=O)[C@@H](N)Cc1ccc(O)cc1)[C@@H](C)O)[C@@H](C)O)[C@@H](C)CC)C(=O)N[C@@H](C)C(=O)N[C@@H](CCC(N)=O)C(=O)NC(C)(C)C(=O)N[C@@H](CCCCNC(=O)COCCOCCNC(=O)COCCOCCNC(=O)CC[C@H](NC(=O)CCCCCCCCCCOc1ccc(C(=O)O)cc1)C(=O)O)C(=O)N[C@@H](Cc1ccccc1)C(=O)N[C@H](C(=O)N[C@H](CCC(=O)O)C(=O)N[C@@](C)(Cc1ccc(O)cc1)C(=O)N[C@@H](CC(C)C)C(=O)N[C@H](C(=O)N[C@@H](CCCCNC(=O)COCCOCCNC(=O)COCCOCCNC(=O)CC[C@H](NC(=O)CCCCCCCCCCOc1ccc(C(=O)O)cc1)C(=O)O)C(=O)NCC(=O)NCC(=O)N1CCC[C@H]1C(=O)N[C@@H](CO)C(=O)N[C@@H](CO)C(=O)NCC(=O)N[C@@H](C)C(=O)N1CCC[C@H]1C(=O)N1CCC[C@H]1C(=O)N1CCC[C@H]1C(=O)N[C@@H](CO)C(N)=O)[C@@H](C)CC)[C@@H](C)CC [Example 331] | – | 0.0113 | > 9950 | > 9950 | 114 | – | 0.436 | – | – | – | – | – | – | – | – | – |
